Legend:
[1] = biological target: Cholinesterase (Homo sapiens, UniProt P06276); experiment: Inhibitory concentration against human serum butyrylcholinesterase activity
[2] = biological target: Acetylcholinesterase (Homo sapiens, UniProt P22303); experiment: Inhibitory concentration against human serum acetylcholinesterase activity
Acetylcholinesterase, sequence (P22303 whole entry): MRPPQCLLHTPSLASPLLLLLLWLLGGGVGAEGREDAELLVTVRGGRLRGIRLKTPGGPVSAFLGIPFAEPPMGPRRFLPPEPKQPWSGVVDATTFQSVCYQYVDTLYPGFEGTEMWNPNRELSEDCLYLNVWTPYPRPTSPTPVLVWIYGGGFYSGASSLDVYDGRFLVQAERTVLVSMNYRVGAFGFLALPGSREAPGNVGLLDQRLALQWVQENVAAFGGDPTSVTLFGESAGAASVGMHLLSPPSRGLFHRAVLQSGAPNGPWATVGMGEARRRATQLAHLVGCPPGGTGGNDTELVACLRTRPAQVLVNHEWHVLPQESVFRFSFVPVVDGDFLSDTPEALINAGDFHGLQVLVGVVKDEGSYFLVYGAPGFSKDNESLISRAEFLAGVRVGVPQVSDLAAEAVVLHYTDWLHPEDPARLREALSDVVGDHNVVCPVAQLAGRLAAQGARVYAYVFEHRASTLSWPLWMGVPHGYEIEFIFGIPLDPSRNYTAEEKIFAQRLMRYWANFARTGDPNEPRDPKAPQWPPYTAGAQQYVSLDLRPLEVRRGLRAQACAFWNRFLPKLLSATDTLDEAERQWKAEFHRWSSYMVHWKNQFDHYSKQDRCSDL

Cholinesterase, sequence (P06276 whole entry): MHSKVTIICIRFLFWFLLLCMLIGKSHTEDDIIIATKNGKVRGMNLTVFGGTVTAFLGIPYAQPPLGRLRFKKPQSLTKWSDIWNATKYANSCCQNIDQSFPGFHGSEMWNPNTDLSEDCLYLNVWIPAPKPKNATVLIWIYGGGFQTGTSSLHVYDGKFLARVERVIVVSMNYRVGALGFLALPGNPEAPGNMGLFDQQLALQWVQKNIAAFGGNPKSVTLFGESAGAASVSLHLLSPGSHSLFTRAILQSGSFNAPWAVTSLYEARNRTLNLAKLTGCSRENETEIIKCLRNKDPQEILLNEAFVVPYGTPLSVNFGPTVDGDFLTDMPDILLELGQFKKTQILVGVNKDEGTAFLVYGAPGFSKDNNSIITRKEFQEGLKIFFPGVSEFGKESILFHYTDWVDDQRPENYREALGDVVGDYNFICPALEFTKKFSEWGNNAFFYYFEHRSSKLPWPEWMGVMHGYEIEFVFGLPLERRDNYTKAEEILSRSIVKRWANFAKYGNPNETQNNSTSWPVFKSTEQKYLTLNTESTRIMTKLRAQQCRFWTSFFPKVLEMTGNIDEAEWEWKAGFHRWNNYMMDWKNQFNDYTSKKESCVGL

Row | Structure (SMILES) | IC50 [1] | IC50 [2]
1 | CCNC(=O)Oc1cccc2c1OCC1CCN(C)C21 (centres undefined) | 44.4 nM | 420 nM
2 | CCCCCCCNC(=O)Oc1cccc2c1OCC1CCN(C)C21 (centres undefined) | 1.26 nM | 20.3 nM
3 | CNC(=O)Oc1cccc(C(C)N(C)C)c1 (centres undefined) | 406 nM | –
4 | CNC(=O)Oc1cccc2c1OCC1CCN(C)C21 (centres undefined) | 59.4 nM | 30 nM
5 | CNC(=O)Oc1cccc2c1CCC1CCN(C)C21 (centres undefined) | 24.5 nM | 17.3 nM
6 | CNC(=O)Oc1cccc2c1SCC1CCN(C)C21 (centres undefined) | 10.5 nM | 8.11 nM
7 | CCNC(=O)Oc1cccc2c1CCC1CCN(C)C21 (centres undefined) | 30.3 nM | 393 nM
8 | CC(NC(=O)Oc1cccc2c1OCC1CCN(C)C21)c1ccccc1 (centres undefined) | 209 nM | –

Source: ChEMBL document CHEMBL1137822 (J Med Chem, 2004)
